Results on one compound are retold here after patent publication US20150343016A1, “CHEMICAL ENTITIES AND THERAPEUTIC USES THEREOF” (The Regents of the University of Colorado, a body corporate, priority 2010, published 2015).

In test [1] the test system is Det562 cells. As to the kind of experiment: MTT assay, Bouvardin with ionizing radiation, Det562 (same-day treatment). Type of test: cell-based, human. As to the method: “Combination Index” computation. Combination Indices were calculated using CalcuSyn software (Biosoft), which uses the method of Chou and Talalay. This method first computes drug-induced effect using the Hill Equation: where E is the measured effect; C is the drug concentration; Emax is the full range of drug effect, usually at or near 100%; IC50 is the drug concentration producing the median effect of 50%; and n is the curve shape parameter describing the steepness of the concentration-effect relationship. The Chou and Talalay method then linearizes the Hill Equation by logarithmic transformation as: where fu is the fraction of cells left unaffected after drug exposure, fa is the fraction of cells affected by the exposure, C is the drug concentration used, Cm is the concentration to achieve the median effect, and n is the curve shape parameter. Cm and n are equivalent to IC50 and n, respectively, in the Hill Equation. The values of n (obtained from the slope), nlog(Cm) (obtained from the absolute value of the intercept), and, therefore, Cm are obtained by plotting log(fu−1−1) versus log(C). These numbers are then used to compute the Combination Index (CI) according to the formula: CI=(D)1/(Dx)1+(D)2/(Dx)2 (26). (Dx)1 and (Dx)2 are the doses required to achieve a given effect level for each treatment, i.e. a specified value of Fraction Affected or Fa. (D)1 and (D)2 are the doses of each treatment in a given combination which gives the same Fa.
For FIG. 19 MTT assays were used to determine the effect of Bouvardin (concentrations in uM) in combination with ionizing radiation (in Gy). The data from same-day treatment of IR and Bouvardin are shown, for comparison with taxol-Bouvardin combination that were also applied on the same day. In general, CI values were lower for FaDu cells than for Det562 cells in two separate experiments (only one set is shown). On Det562 cells, CI values were about 1 for most combinations. CI value for Det562 cells at 0.001 uM/1Gy and at >0.06 uM are not included in the graph because the values are >10 and would have made smaller values harder to see. On FaDu cells, CI values were below 1 at concentrations of 0.03 or lower, were about 1 for 0.06 uM drug, and were over 1 at higher concentrations.
The growth inhibitory effects of Bouvardin with ionizing radiation (IR) were evaluated using a modified tetrazolium salt (MTT) assay. In the MTT assay, 1,000 to 2,000 viable cells were plated in 100 uL of growth medium in 96-well plates (Corning, Ithaca, N.Y.). Following an overnight incubation, drug was added in varying concentrations and the plates were irradiated on the same day (co-treatment) or 24 hr later (pre-treatment) and incubated for 6 to 7 days. The tetrazolium salt was added at a concentration of 0.4 mg/mL to each well following the 6- to 7-day treatment. The plates were incubated with the salt for 4 hours at 37° C. At 4 hours, the medium was aspirated off, leaving the dark blue formazan product at the bottom of the wells. The reduced MTT product was solubilized by adding […] of 0.2 N HCl in 75% isopropanol, 23% MilliQ water to each well. Thorough mixing was done using a Titertek multichannel pipetman. The absorbency of each well was measured using an automated plate reader (Molecular Devices, Sunnyvale, Calif.). All experiments were done in triplicate.
Background: Tetrazolium assays rely on reduction of a dye to a coloured formazan, in cell work by metabolically active cells.

Test [2] has as its system Det562 cells. The test is described as follows: CellTiter-Glo Luminescent Cell Viability Assay, Bouvardin with Taxol, Det562. The following applies: Det562. Type of test: cell-based, human. Background: In ATP-based viability assays light output follows the ATP content of the culture.
Protocol: “Combination Index” computation. Combination Indices were calculated using CalcuSyn software (Biosoft), which uses the method of Chou and Talalay. This method first computes drug-induced effect using the Hill Equation: where E is the measured effect; C is the drug concentration; Emax is the full range of drug effect, usually at or near 100%; IC50 is the drug concentration producing the median effect of 50%; and n is the curve shape parameter describing the steepness of the concentration-effect relationship. The Chou and Talalay method then linearizes the Hill Equation by logarithmic transformation as: where fu is the fraction of cells left unaffected after drug exposure, fa is the fraction of cells affected by the exposure, C is the drug concentration used, Cm is the concentration to achieve the median effect, and n is the curve shape parameter. Cm and n are equivalent to IC50 and n, respectively, in the Hill Equation. The values of n (obtained from the slope), nlog(Cm) (obtained from the absolute value of the intercept), and, therefore, Cm are obtained by plotting log(fu−1−1) versus log(C). […]
The growth inhibitory effects of Bouvardin with Taxol were evaluated using CellTiter-Glo® Luminescent Cell Viability Assay (Promega G7570). […] Luminescence of each well was measured using an automated plate reader.
In test [3] the test system is H157 tumor xenografts. As to the kind of experiment: H157 tumor xenografts in athymic mice, Bouvardin with radiation. Type of test: in vivo. From the text: The effectiveness of Bouvardin, IR and the combination of the two was next assessed in H157 tumor xenografts (FIG. 17B). […] Similar results were obtained in a repeat experiment (not shown). […] Bouvardin enhances the effect of radiation in Drosophila mutant larvae, human cancer cells and tumor xenografts in mice. The choice of drug concentration would be critical.
In FIG. 17 (A) Clonogenic assays were used to confirm the effects of Bouvardin in combination with radiation in H157 cells. Cells were plated in 6 well plates at 1,000 cells per well. 24 hours later, various doses of (1 nM, 5 nM and 10 nM) of Bouvardin were added with media alone as a control. 24 hours after the addition of Bouvardin, the cells were irradiated at 0, 2, 4 and 6 Gy. Colonies were allowed to form for 2 weeks and then counted. The results are shown as a percentage of control (no drug, no IR). Error bar=±1SEM. (B) The effect of Bouvardin (Bvd) and radiation on H157 xenografts in athymic mice. Bouvardin treatment began when tumors had reached approximately 200 mm3. Bouvardin was administered intraperitonealy twice a week, and radiation was administered 24 hr after each drug administration Animals in control and drug-only groups had tumors that were too large and had to be sacrificed on day 26. Treatment continued for the other two groups for one more week. The difference in tumor volume between combination-treated group and radiation only group was statistically significant at day 30 (p=0.0387 on day 30; upaired two tailed t-test). The difference in tumor volume between combination-treated group and radiation only group remains on day 33 but is less significant (p=0.0967; upaired two tailed t-test). N=10 per group. The data points indicate mean tumor volumes ±1SEM.
Six to 8-week-old female nude athymic mice were purchased from Harlan Laboratories and housed in a pathogen-free facility approved by the American Association for the Accrediation of Laboratory Animal Care and met all current regulations and standards of the U.S. Department of Agriculture, the U.S. Department of Health and Human Services and the National Institutes of Health Animal procedures were carried out in accordance with a protocol approved by the Institutional Animal Care and Use Committee of the University of Colorado. Cancer cells were grown to 80% confluence and harvested by trypsinization. Trypsin was neutralized with complete medium containing FBS. […] Mice were treated for 3 weeks, and tumor growth was measured until volume exceeded 2 cm3, when animals were euthanized. Tumor volume was measured on Tuesdays and Fridays. Tumor volume was calculated using the formula V=a2×b/2, where a and b are the smallest and largest tumor diameters, respectively, as determined using calipers.

Entries after “also recorded” stand apart in the source; their conditions may differ. Where two headings read alike, the source gives them in different places.

As for `COc1ccc(C[C@H]2C(=O)N[C@H](C)C(=O)N(C)[C@@H]3C(=O)N(C)[C@@H](Cc4ccc(O)c(c4)Oc4ccc(cc4)[C@H]3O)C(=O)N[C@@H](C)C(=O)N[C@H](C)C(=O)N2C)cc1` (stereo in doubt) [Bouvardin, bouvardin], the “interaction of Bouvardin with IR” value was “a wide range of effects, synergistic to antagonistic” in test [1] and “synergizes with ionizing radiation” in test [1] (listed as bouvardin). The “CI value, Bouvardin with IR” value in test [1] (0.001 uM/1Gy) and in test [1] (at >0.06 uM) was over 10 each time. In addition, in test [1] (most combinations), the “CI values, Bouvardin with IR” value was “about 1”. Also, the “interaction of Bouvardin with Taxol” value in test [2] is given as “synergy with Taxol over a wide range of concentrations”. Also, the “tumor control, drug with radiation versus radiation alone” value in test [3] (0.2 mg/kg + radiation 24 hr after each drug administration, p=0.0387 on day 30, p=0.0967 on day 33) is “improved control of tumor volume in a statistically significant manner; also recorded: enhanced the effect of IR”; in test [3] (0.4 mg/kg + radiation), “did not enhance the effect of radiation; also recorded: did not enhance the effect of IR”. For the same compound, the “tumor control, drug alone” value was “had little effect on its own” in test [3] (0.2 mg/kg intraperitonealy twice a week) and “shows tumor control; also recorded: had effect on its own” in test [3] (0.4 mg/kg).
